Laboratory results reported in article PMC10010643 (Cancer Chemotherapy and Pharmacology, 2023).
Like-named read-outs stand apart in the source and are kept apart here.

Tests used:
[1] = tested on: programmed cell death protein 1 and PD-L1; conditions: pembrolizumab and atezolizumab; cited from earlier work
[2] = tested on: panel of different targets including enzymes, receptors, and ion channels; set-up: method as in PMID 36154172; conditions: cited from earlier work
lung fibrosis = tested on: lung fibrosis; set-up: method as in PMID 36154172; conditions: bleomycin-induced; cited from earlier work
liver fibrosis = tested on: liver fibrosis; set-up: method as in PMID 36154172; conditions: CCl4-induced; cited from earlier work
[3] = Urine PK, Part A single oral doses in healthy participants; assay type: in vivo, human; conditions: for CL renal: human
Description: A further two cohorts were recruited. […] Each individual participated in one treatment period only, with the exception of the food-effect cohort (cohort A3) in which there were two treatment periods separated by at least 7 days washout. Participants resided at the Clinical Research Unit (CRU) from 1 day ahead of dosing (day − 1) to day 3 and returned for a follow-up visit 5–7 days after their final dose. For all cohorts, doses were administered in the fasted state in the morning of day 1 of Treatment Period 1. In the food-effect cohort, doses were given 30 min after the start of a high-fat breakfast (973 calories total: approximately 150 protein calories, 250 carbohydrate calories, and 500–600 fat calories) on day 1 of Treatment Period 2. For cohorts A1 to A5 in Treatment Period 1, dosing occurred such that one pair (one active and one placebo) were dosed at least 24 h before the remaining participants. Continuation to dose those who remained was at the investigator’s discretion. Escalating doses were administered following satisfactory sponsor and investigator review of the safety and tolerability data (up to 48 h post-final dose) and PK data (up to 24 h post-final dose) from the lower dose levels.
Urine was collected by spot collection in Part A only before dosing and between 0–6, 6–12, 12–24, and 24–48 h post-dose. Blood and urine aliquots were stored in polypropylene tubes at − 70 °C until bioanalysis.
Noncompartmental PK analysis was performed on individual plasma and urine concentration data, using Phoenix® WinNonlin® 8.1 software (Certara USA Inc., Princeton NJ). Plasma PK parameter endpoints for Part A included area under the plasma concentration–time curve (AUC) from time 0 to infinity (AUC0–∞), AUC from time 0 to the time of the last quantifiable concentration (AUC0–tlast), maximum observed plasma concentration (Cmax), time of the maximum observed plasma concentration (Tmax), terminal half-life in plasma (t½), apparent total plasma clearance (CL/F), and apparent volume of distribution (Vz/F). Urine PK parameters calculated in Part A included amount of drug excreted in urine (Ae), percentage of dose excreted unchanged in urine (fe) and renal clearance (CLR).

[4] = set-up: method as in PMID 36154172; conditions: in mice; cited from earlier work
human macrophages = tested on: human macrophages; set-up: method as in PMID 36154172; conditions: in vitro; cited from earlier work
[5] = single dose 5 mg (1 × 5 mg), fasted
[6] = single dose 20 mg (4 × 5 mg), fasted
[7] = single dose 50 mg (1 × 50 mg), fasted
[8] = single dose 50 mg (1 × 50 mg), fed
[9] = single dose 50 mg (10 × 5 mg), fasted
[10] = single dose 100 mg (2 × 50 mg), fasted
[11] = single dose 200 mg (4 × 50 mg), fasted
[12] = single dose 400 mg (8 × 50 mg), fasted

## OC[C@H]1O[C@H](Sc2cncc(Br)c2)[C@H](O)[C@@H](n2cc(-c3cc(F)c(F)c(F)c3)nn2)[C@H]1O [GB1211]
[1]
  Galectin-3-induced inhibition of immune checkpoint inhibitor binding: reverses
[2]
  Safety profile against a panel of different targets: favorable safety profile
Lung fibrosis
  Fibrosis in vivo, lung: reducing fibrosis
Liver fibrosis
  Fibrosis in vivo, liver: reducing fibrosis
[3]; 5–50 mg dose range (5 mg capsule)
  Geometric mean fe(0–48 h), range across doses: 26.8–30.0%
[3]; 50–400 mg dose range (50 mg capsules; fasted state)
  Geometric mean fe(0–48 h), range across doses: 10.5–18.7%
[3]; CLR greater than GFR corrected for fu
  Renal elimination mechanism: undergoes active secretion in the kidney
[3]; GFR approximately 7.5 L/h, fu 5.34%
  Glomerular filtration rate corrected for the fraction of unbound GB1211 in plasma: approximately 0.4 L/h
[3]; urine and plasma, po, single oral dose, read-out: Geometric mean CLR, range across all doses
  CL renal: 30.5 to 44.5 mL/min
[3]; urine, oral, 5 mg, single dose 5 mg (1 × 5 mg), fasted, read-out: CLR, geometric mean (CV%) (converted)
  CL renal: 35.3 mL/min
[3]; urine, oral, 20 mg, single dose 20 mg (4 × 5 mg), fasted, read-out: CLR, geometric mean (CV%) (converted)
  CL renal: 31.7 mL/min
[3]; urine, oral, 50 mg, single dose 50 mg (1 × 50 mg), fasted, read-out: CLR, geometric mean (CV%) (converted)
  CL renal: 37.3 mL/min
[3]; urine, oral, 50 mg, single dose 50 mg (1 × 50 mg), fed, read-out: CLR, geometric mean (CV%) (converted)
  CL renal: 36.7 mL/min
[3]; urine, oral, 50 mg, single dose 50 mg (10 × 5 mg), fasted, read-out: CLR, geometric mean (CV%) (converted)
  CL renal: 32.3 mL/min
[3]; urine, oral, 100 mg, single dose 100 mg (2 × 50 mg), fasted, read-out: CLR, geometric mean (CV%) (converted)
  CL renal: 43.2 mL/min
[3]; urine, oral, 200 mg, single dose 200 mg (4 × 50 mg), fasted, read-out: CLR, geometric mean (CV%) (converted)
  CL renal: 30.5 mL/min
[3]; urine, oral, 400 mg, single dose 400 mg (8 × 50 mg), fasted, read-out: CLR, geometric mean (CV%) (converted)
  CL renal: 44.5 mL/min
[3]; [5]
  Ae (0–48 h), geometric mean (CV%): 1.43 (27.0) mg
  fe (0–48 h), geometric mean (CV%): 28.7 (27.0) %
[3]; [6]
  Ae (0–48 h), geometric mean (CV%): 6.00 (19.7) mg
  fe (0–48 h), geometric mean (CV%): 30.0 (19.7) %
[3]; [7]
  Ae (0–48 h), geometric mean (CV%): 9.34 (44.1) mg
  fe (0–48 h), geometric mean (CV%): 18.7 (44.1) %
[3]; [8]
  Ae (0–48 h), geometric mean (CV%): 10.9 (33.5) mg
  fe (0–48 h), geometric mean (CV%): 21.7 (33.5) %
[3]; [9]
  Ae (0–48 h), geometric mean (CV%): 13.4 (38.7) mg
  fe (0–48 h), geometric mean (CV%): 26.8 (38.7) %
[3]; [10]
  Ae (0–48 h), geometric mean (CV%): 15.3 (34.8) mg
  fe (0–48 h), geometric mean (CV%): 15.3 (34.8) %
[3]; [11]
  Ae (0–48 h), geometric mean (CV%): 21.0 (28.0) mg
  fe (0–48 h), geometric mean (CV%): 10.5 (28.0) %
[3]; [12]
  Ae (0–48 h), geometric mean (CV%): 50.7 (33.6) mg
  fe (0–48 h), geometric mean (CV%): 12.7 (33.6) %
[4]
  Oral bioavailability: 68%
Human macrophages
  Galectin-3 expression on human macrophages: potently inhibited galectin-3 expression
